The text below walks through data of patent US8404650B2, “Methods of treating cancer with doxazolidine and prodrugs thereof” (priority 2005, dated 2013).

Structures are written as SMILES. Read-outs that look alike come from different tables or passages of the source.

Series [1] can be described thus: Hydrolysis of Doxaz to Doxorubicin in buffers (HPLC). The series is classed as physicochemical. Here is the method: Doxaz stability in DMSO. Doxaz (22 mg, 40 μmol) was dissolve in 1 mL of DMSO-d6 (stored over activated 4 Å molecular sieves) and analyzed for purity by 500 MHz ^1H NMR. After a 10× dilution with DMSO to a concentration of 4 mM, the stability of Doxaz was then followed by HPLC, observing the relative peak area of the Doxaz peak at 6.6 min with constant injection volume. Doxaz hydrolyzed at a rate of <2% per day in DMSO. Doxaz stability in buffers. HPLC buffer, pH 7.4, 20 mM TEAA, was used for the measurement of hydrolysis of Doxaz. The buffer's pH was adjusted as needed with either triethyl amine or acetic acid to pH 10.4, 9.0, 6.0 and 5.0 with one sample left unchanged at pH 7.4. A volume of 1950 μL of each of these solutions was added to a conical vial and then cooled to 14° C. 50 μL of a 4 mM solution of Doxaz was added to each tube and hydrolysis was followed by HPLC with injections every 10 min. The pH of the buffers was measured before the addition of drug and 1.5 h after the start of hydrolysis.
Both DoxF and Doxaz are relatively stable in dry chloroform and dry DMSO over a period of days. In dry DMSO, Doxaz hydrolyzes to Doxorubicin at less than 2% per day at ambient temperature. In aqueous medium, DoxF is very hydrolytically unstable with respect to formation of Doxaz, and Doxaz is hydrolytically unstable with respect to formation of Doxorubicin. […] Consequently, HPLC was used to monitor the kinetics of hydrolysis of Doxaz to Doxorubicin at 14° C. as a function of pH. […] The hydrolysis was too rapid to measure the rate at 37° C. Extrapolation using the rough rule that the rate will double for every 10° C. increase in temperature, gives an estimation of the half-life at pH 7.4 and 37° C. of 3 to 4 min. The rate constant increases with decreasing pH except for the transition from pH 10.4 to pH 9.0 where the rate constant decreases slightly. At pH 10.5 the solution appears purple, indicative of deprotonation at one of the hydroquinone functional groups. […] The higher rate at low pH is consistent with acid catalysis, probably assisting hydrolytic ring opening as the slow step. […]

The subject of another series is liver cancer. As to conditions: circumstantial data; treatment of liver cancer; cited from earlier work.
Series [2] in a line: Uptake of pentyl carbamate relative to Dox, flow cytometry, with and without fetal bovine serum. Format: cell-based. The following applies: 10% fetal bovine serum, flow cytometry, 3 h. Here is the method: Uptake of the pentyl carbamate relative to uptake of Dox was measured by flow cytometry, monitoring fluorescence of the Dox fluorophore as a measure of drug in cells. The measurements were performed over a period of 3 h in the presence and absence of fetal bovine serum, and the results are shown in FIG. 4. […] Further, the presence of 10% fetal bovine serum decreased the uptake of doxorubicin and the pentyl carbamate by about 25%. The more rapid uptake of the pentyl carbamate in the presence and absence of serum probably reflects its increased hydrophobicity relative to that of doxorubicin which is a cation at physiological pH. Increased hydrophobicity may also be the explanation for the effect of serum on the uptake of the carbamate; namely, the carbamate binds to serum proteins reducing drug uptake.
In general terms: In flow cytometry, cells or beads pass a laser one at a time.

The half-life is how long it takes for the measured level to halve. With `COc1cccc2c1C(=O)c1c(O)c3c(c(O)c1C2=O)C[C@@](O)(C(=O)CO)C[C@@H]3O[C@H]1C[C@@H]2NCO[C@@H]2[C@H](C)O1` [Doxaz, Doxazolidine], the half-life at 100 µM was 3 to 4 min in series [1] (20 mM TEAA buffer, pH 7.4, aqueous media, pH 7.4, 37° C., extrapolated from 14° C. (rate doubles per 10° C.), read-out: Half-life for hydrolysis of Doxaz to Doxorubicin at 37° C.); 16 min in series [1] (20 mM TEAA buffer, pH 7.5, pH 7.5, 14° C., 20 mM TEAA buffer, read-out: Half-life for hydrolysis of Doxaz to Doxorubicin at 14° C.); about 3 min in series [1] (20 mM triethylammonium acetate (TEAA) buffer, pH 7.4, after prodrug activation near a tumor / in vivo, read-out: Half-life of Doxaz (conversion to Doxorubicin) after release). In the series on liver cancer, the “Improvement relative to Doxorubicin in a clinical trial” value was 75%.
Take `COc1cccc2c1C(=O)c1c(O)c3c(c(O)c1C2=O)C[C@@](O)(C(=O)CO)C[C@@H]3O[C@H]1C[C@H](N)[C@H](O)[C@H](C)O1` [Doxorubicin, reference compound]: in series [2], the “Decrease of uptake by 10% fetal bovine serum” value is given as “about 25%”.
